The values that follow come from patent US20050004126A1 (priority 2001, published 2005).

Values joined by “and” are separate entries in the source; they are usually repeats but may differ in a detail not shown here. Equal values may be shown once. Where a name gives a salt, the structure may show the parent alone. Read-outs that look alike come from different tables or passages of the source.

Assay [1] addresses T1, MMP-13CD (catalytic domain of collagenase 3) (Homo sapiens, UniProt P45452). In words: biochemical.
The target in assay [2] is T1, MMP-13CD (catalytic domain of collagenase 3). In words: Thiopeptolide hydrolysis assay, MMP-13.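 Further: inhibition of enzymatic thiopeptolide substrate cleavage (100 µM) in pH 6.0 MES buffer with CaCl2 and DTNB, comparing hydrolysis with versus without inhibitor.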
For assay [3], the target named is T2, MMP-1FL (full-length interstitial collagenase) (Homo sapiens, UniProt P03956).
T2 sequence (P03956 100-469): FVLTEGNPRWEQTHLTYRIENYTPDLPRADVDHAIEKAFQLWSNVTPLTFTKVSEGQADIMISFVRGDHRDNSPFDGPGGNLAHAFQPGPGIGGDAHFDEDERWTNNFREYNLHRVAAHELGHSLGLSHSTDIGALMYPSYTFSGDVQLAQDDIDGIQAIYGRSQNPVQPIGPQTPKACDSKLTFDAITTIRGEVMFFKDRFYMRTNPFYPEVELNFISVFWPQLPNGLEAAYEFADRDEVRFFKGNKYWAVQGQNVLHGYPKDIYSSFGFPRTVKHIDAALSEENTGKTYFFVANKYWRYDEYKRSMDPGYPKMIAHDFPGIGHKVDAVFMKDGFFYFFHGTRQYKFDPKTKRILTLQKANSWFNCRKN
In words: Thiopeptolide hydrolysis assay, MMP-1. The assay is classed as biochemical. The conditions noted are these: read-out: MMP01 IC50.
Protocol: (§1) They measure the amount by which a test compound reduces the hydrolysis of a thiopeptolide substrate caused by a matrix metalloproteinase enzyme.
Thiopeptolide substrates show virtually no decomposition or hydrolysis in the absence of a matrix metalloproteinase enzyme. A typical thiopeptolide substrate commonly utilized for assays is Ac-Pro-Leu-Gly-thioester-Leu-Leu-Gly-OEt. A 100 μL assay mixture will contain 50 mM of 2-morpholinoethane sulfonic acid monohydrate (MES, pH 6.0) 10 mM CaCl2, 100 μM thiopeptolide substrate, and 1 mM 5,5′-dithio-bis-(2-nitro-benzoic acid) (DTNB). […] The change in absorbance at 405 nm is monitored on a Thermo Max microplate reader (moleucular Devices, Menlo Park, Calif.) at room temperature (22° C.). […] Assays are carried out with and without matrix metalloproteinase inhibitor compounds, and the amount of hydrolysis is compared for a determination of inhibitory activity of the test compounds.

Assay [4] has as its target MMP-3CD (catalytic domain of stromelysin) (Homo sapiens, UniProt P08254). Kind of assay: Thiopeptolide hydrolysis assay, MMP-3.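 Further: inhibition of thiopeptolide substrate (100 µM) cleavage by the MMP-3 catalytic domain, detected with DTNB at pH 6.0 with CaCl2, hydrolysis compared against runs lacking inhibitor.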 The assay is classed as biochemical. The conditions noted are these: read-out: MMP03 IC50.
Protocol: as §1
Thiopeptolide substrates show virtually no decomposition or hydrolysis in the absence of a matrix metalloproteinase enzyme. A typical thiopeptolide substrate commonly utilized for assays is Ac-Pro-Leu-Gly-thioester-Leu-Leu-Gly-OEt. A 100 μL assay mixture will contain 50 mM of 2-morpholinoethane sulfonic acid monohydrate (MES, pH 6.0) 10 mM CaCl2, 100 μM thiopeptolide substrate, and 1 mM 5,5′-dithio-bis-(2-nitro-benzoic acid) (DTNB). […] Assays are carried out with and without matrix metalloproteinase inhibitor compounds, and the amount of hydrolysis is compared for a determination of inhibitory activity of the test compounds.

Sequence of MMP-3CD (catalytic domain of stromelysin) (P08254 100-272 limits assumed): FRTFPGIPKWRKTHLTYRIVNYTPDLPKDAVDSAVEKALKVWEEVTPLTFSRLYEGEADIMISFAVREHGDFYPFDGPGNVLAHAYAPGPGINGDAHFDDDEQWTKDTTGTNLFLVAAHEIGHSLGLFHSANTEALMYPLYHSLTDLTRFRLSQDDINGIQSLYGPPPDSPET

One may read the IC50 as the concentration that inhibits the measured activity by half. In assay [1], `Cn1c(=O)c2cc(C(=O)NCc3ccc4c(c3)OCO4)ccc2n(C)c1=O` [1,3-Dimethyl-2,4-dioxo-1,2,3,4-tetrahydroquinazoline-6-carboxylic acid (benzo[1,3]dioxol-5-ylmethyl)amide] had an IC50 of 1700 nM.
Still for that read-out and setting: to `Cn1c(=O)n(CCc2ccccc2)c(=O)c2cc(C(=O)NCc3ccc4c(c3)OCO4)ccc21` [1-Methyl-2,4-dioxo-3-phenethyl-1,2,3,4-tetrahydroquinazoline-6-carboxylic acid (benzo[1,3]dioxol-5-ylmethyl)amide] belongs 700 nM; to `Cn1c(=O)n(Cc2cccs2)c(=O)c2cc(C(=O)NCc3ccccc3)ccc21` [1-Methyl-2,4-dioxo-3-thien-2-ylmethyl-1,2,3,4-tetrahydroquinazoline-6-carboxylic acid benzylamide], 96 nM.
Still for that read-out and setting: to `O=C(NCc1ccc2c(c1)OCO2)c1ccc2[nH]c(=O)n(Cc3ccncc3)c(=O)c2c1` [2,4-Dioxo-3-pyrid-4-ylmethyl-1,2,3,4-tetrahydroquinazoline-6-carboxylic acid (benzo[1,3]dioxol-5-ylmethyl)amide] belongs 51 nM; to `O=C(NCc1ccccc1)c1ccc2[nH]c(=O)n(Cc3cccs3)c(=O)c2c1` [2,4-Dioxo-3-thien-2-ylmethyl-1,2,3,4-tetrahydroquinazoline-6-carboxylic acid benzylamide], 300 nM.
Still for that read-out and setting: to `O=C(NCc1ccc2c(c1)OCO2)c1ccc2c(c1)c(=O)n(Cc1ccccc1)c(=O)n2CC1CC1` [3-Benzyl-1-cyclopropylmethyl-2,4-dioxo-1,2,3,4-tetrahydroquin-azoline-6-carboxylic acid (benzo[1,3]dioxol-5-ylmethyl)amide] belongs 157 nM; to `CC(C)Cn1c(=O)n(Cc2ccccc2)c(=O)c2cc(C(=O)NCc3ccc4c(c3)OCO4)ccc21` [3-Benzyl-1-isobutyl-2,4-dioxo-1,2,3,4-tetrahydroquinazoline-6-carboxylic acid (benzo[1,3]dioxol-5-ylmethyl)amide], 600 nM; to `Cn1c(=O)n(Cc2ccccc2)c(=O)c2cc(C(=O)NCc3ccncc3)ccc21` [3-Benzyl-1-methyl-2,4-dioxo-1,2,3,4-tetrahydroquinazoline-6-carboxylic acid (4-pyridylmethyl)amide], 51 nM.
The molecule `Cn1c(=O)n(Cc2ccccc2)c(=O)c2cc(C(=O)NCc3ccccc3)ccc21` [3-Benzyl-1-methyl-2,4-dioxo-1,2,3,4-tetrahydroquinazoline-6-carboxylic acid benzylamide] had an IC50 in assay [1] of 57 nM.
On to `O=C(NCc1ccc(Cl)cc1)c1cccc(C(=O)NCc2ccc(Cl)cc2)c1` [N,N′-Bis-(4-chloro-benzyl)-isophthalamide], for which the IC50 in assay [2] (MMP13 IC50 (nM), Table II) came out at 5500 nM; in assay [3] (Table II), 79000 nM; in assay [4] (Table II), 9400 nM.
On to `COc1cc(CNC(=O)c2cccc(C(=O)NCc3ccc(F)c(OC)c3)c2)ccc1F` [N,N′-Bis-(4-fluoro-3-methoxy-benzyl)-isophthalamide], for which the half-maximal inhibitory concentration (IC50) in assay [2] (MMP13 IC50 (nM), Table II) was 930 nM; in assay [3] (Table II) it was over 100000 nM; in assay [4] (Table II), over 100000 nM.
Regarding `O=C(NCc1ccc(F)cc1)c1cccc(C(=O)NCc2ccc(F)cc2)c1` [N,N′-Bis-(4-fluoro-benzyl)-isophthalamide], the IC50 was 2350 nM in assay [2] (MMP13 IC50 (nM), Table II); over 100000 nM in assay [3] (Table II); over 100000 nM in assay [4] (Table II).
In the case of `COc1ccc(CNC(=O)c2cccc(C(=O)NCc3ccc(OC)cc3)c2)cc1` [N,N′-Bis-(4-methoxy-benzyl)-isophthalamide], the IC50 in assay [2] (MMP13 IC50 (nM), Table II) was 1000 nM and 2740 nM; in assay [3] (Table II), over 100000 nM; in assay [4] (Table II) it was over 100000 nM.
`COc1ccc(C(=O)NCc2ccccc2)cc1C(=O)NCc1ccccc1` [N,N′-Dibenzyl-4-methoxy-isophthalamide]: the IC50 in assay [2] (MMP13 IC50 (nM), Table II) is 1800 nM and 1100 nM; in assay [3] (Table II), over 100000 nM; in assay [4] (Table II) it was over 100000 nM.
On to `COc1ccc(CNC(=O)c2cccc(C(=O)NCc3ccccc3)c2)cc1` [N-Benzyl-N′-(4-methoxy-benzyl)-isophthalamide], for which the IC50 was 2420 nM in assay [2] (MMP13 IC50 (nM), Table II); over 100000 nM in assay [3] (Table II); over 100000 nM in assay [4] (Table II).
As for `Cc1c(=O)n(Cc2ccc(C(=O)OCCN(C)C)cc2)c(=O)n2cc(C(=O)NCc3ccncc3)sc12` [dihydrochloride], the IC50 in assay [2] (MMP13 IC50 (μM), Table 1b) was 235 nM; in assay [3] (Table 1b), over 100000 nM; in assay [4] (Table 1b), over 100000 nM.
Turning to `COc1ccc(CNC(=O)c2cn3c(=O)n(Cc4ccc(C(=O)OCCN(C)C)cc4)c(=O)c(C)c3s2)cc1` [hydrochloride], the IC50 in assay [2] (MMP13 IC50 (μM), Table 1b) is 45.5 nM; in assay [3] (Table 1b), over 30000 nM; in assay [4] (Table 1b) it was over 100000 nM.
For the molecule `Cc1c(=O)n(Cc2ccc(Br)cc2)c(=O)n2cc(C(=O)NCc3ccncc3)sc12` [hydrochloride], the concentration for half-maximal inhibition (IC50) in assay [2] (MMP13 IC50 (μM), Table 1b) is 36.5 nM; in assay [3] (Table 1b) it was over 30000 nM; in assay [4] (Table 1b) it was over 30000 nM.
As for `Cc1c(=O)n(Cc2ccc(C#N)cc2)c(=O)n2cc(C(=O)NCc3ccncc3)sc12` [hydrochloride], the IC50 in assay [2] (MMP13 IC50 (μM), Table 1b) was 54.7 nM; in assay [3] (Table 1b), over 30000 nM; in assay [4] (Table 1b) it was over 30000 nM.
`Cc1c(=O)n(Cc2ccc(C(=O)N3CCOCC3)cc2)c(=O)n2cc(C(=O)NCc3ccncc3)sc12` [hydrochloride]: the concentration for half-maximal inhibition (IC50) in assay [2] (MMP13 IC50 (μM), Table 1b) is 37 nM; in assay [3] (Table 1b) it was over 100000 nM; in assay [4] (Table 1b) it was over 100000 nM.
As to `Cc1c(=O)n(Cc2ccc(C(=O)OCCN(C)C)cc2)c(=O)n2cc(C(=O)NCc3ccc(F)cc3)sc12` [hydrochloride], the IC50 was 71 nM in assay [2] (MMP13 IC50 (μM), Table 1b); over 30000 nM in assay [3] (Table 1b); over 100000 nM in assay [4] (Table 1b).
For `Cc1c(=O)n(Cc2ccc(F)cc2)c(=O)n2cc(C(=O)NCc3ccncc3)sc12` [hydrochloride], in that order: 60.5 nM, over 30000 nM and over 30000 nM.
Consider `Cc1c(=O)n(Cc2ccc(S(N)(=O)=O)cc2)c(=O)n2cc(C(=O)NCc3ccncc3)sc12` [hydrochloride], for which the IC50 in assay [2] (MMP13 IC50 (μM), Table 1b) was 46.3 nM; in assay [3] (Table 1b), over 30000 nM; in assay [4] (Table 1b), over 100000 nM.
As for `Cc1c(=O)n(Cc2cccc(C#N)c2)c(=O)n2cc(C(=O)NCc3ccncc3)sc12` [hydrochloride], the IC50 in assay [2] (MMP13 IC50 (μM), Table 1b) was 173 nM; in assay [3] (Table 1b), over 30000 nM; in assay [4] (Table 1b) it was over 30000 nM.
As for `Cc1c(=O)n(Cc2ccccc2)c(=O)n2cc(C(=O)NCc3ccncc3)sc12` [hydrochloride], the IC50 in assay [2] (MMP13 IC50 (μM), Table 1b) is 48.7 nM; in assay [3] (Table 1b), over 30000 nM; in assay [4] (Table 1b), over 30000 nM.
For the molecule `Cc1c(=O)n(Cc2nccs2)c(=O)n2cc(C(=O)NCc3ccc(F)cc3)sc12` [hydrochloride], the IC50 was 530 nM in assay [2] (MMP13 IC50 (μM), Table 1b); over 100000 nM in assay [3] (Table 1b); over 30000 nM in assay [4] (Table 1b).
For `O=C(NCc1ccccc1)c1cn2c(=O)n(Cc3ccncc3)c(=O)cc2s1` [hydrochloride], in that order: 1800 nM, over 100000 nM and over 100000 nM.
In the same order, the values of `O=C(NCc1ccncc1)c1cn2c(=O)n(Cc3ccccc3)c(=O)cc2s1` [hydrochloride] are 490 nM, over 100000 nM and 68000 nM.
In the same order, the values of `COc1ccc(CNC(=O)c2cn3c(=O)n(Cc4ccc(C(=O)O)cc4)c(=O)c(C)c3s2)cc1` [sodium salt] are 1.75 nM, over 100000 nM and 36000 nM.
